Test results: patent US20230381183A1, “USE OF FOLIC ACID AND FOLATE MODIFICATION IN INDUCING B-CELL IMMUNE TOLERANCE AND TARGETING mIgM-POSITIVELY-EXPRESSED B-CELL LYMPHOMA” (FUDAN UNIVERSITY, priority 2020, published 2023)
Each block holds one compound with its values, some of them ahead of it. Where no end group is shown, it is not given here.

How the values were obtained:
[1] = Water solubility (observation on preparation); assay type: physicochemical
OVA-specific IgG = experiment: Oral folic acid: serum OVA-specific IgG by ELISA; assay type: in vivo, BALB/c female mice
Description: The BALB/c female mice (5 weeks old) were randomly divided into 4 groups, with 6 mice in each group, and were treated as follows: (1) FA(ig) group: each mouse was administered with 3 mg free folic acid by gavage every day for two weeks: (2) FA(ig)+OVA group: each mouse was administered with 3 mg free folic acid by gavage every day for two weeks, and was administered with OVA via tail vein injection on day 0 and day 7 respectively (10 μg/mouse): (3) OVA group: each mouse was administered with OVA via tail vein injection on days 0 and day 7 respectively (10 μg/mouse); (4) Physiological saline group: each mouse was administered with physiological saline via tail vein injection on day 0 and day 7 respectively. Then, on days 14, 21 and 28, all mice were administered with 100 μl mixed solution of OVA and KLH (hemocyanin) in water (100 μg/mL OVA and 100 ug/mL KLH). The serum was collected before the administration of the mixed solution on days 14, 21 and 28 and on day 35. The specific antibodies in the serum were detected by ELISA. […] The immune function of the body recovered when the administration of FA is discontinued.

KLH-specific antibodies = experiment: Oral folic acid: serum KLH-specific antibodies by ELISA; assay type: in vivo, BALB/c female mice; settings: FA(ig) group vs physiological saline group; days 21, 28, 35
Description: The BALB/c female mice (5 weeks old) were randomly divided into 4 groups, with 6 mice in each group, and were treated as follows: (1) FA(ig) group: each mouse was administered with 3 mg free folic acid by gavage every day for two weeks: (2) FA(ig)+OVA group: each mouse was administered with 3 mg free folic acid by gavage every day for two weeks, and was administered with OVA via tail vein injection on day 0 and day 7 respectively (10 μg/mouse): (3) OVA group: each mouse was administered with OVA via tail vein injection on days 0 and day 7 respectively (10 μg/mouse); (4) Physiological saline group: each mouse was administered with physiological saline via tail vein injection on day 0 and day 7 respectively. Then, on days 14, 21 and 28, all mice were administered with 100 μl mixed solution of OVA and KLH (hemocyanin) in water (100 μg/mL OVA and 100 ug/mL KLH). The serum was collected before the administration of the mixed solution on days 14, 21 and 28 and on day 35. The specific antibodies in the serum were detected by ELISA. […] The results also confirmed that the immune function of the body recovered when the administration of FA is discontinued.

[2] = system: antibodies against infliximab; experiment: Serum antibodies against infliximab by ELISA; assay type: in vivo, BALB/c female mice; settings: FA gavage+infliximab group: 3 mg free folic acid per day for two weeks, infliximab 60 μg/mouse iv days 0, 7, 14; serum day 21
Description: The BALB/c female mice (6 weeks old) were randomly divided into infliximab group, FA gavage+infliximab group and physiological saline group, with 5 mice in each group. For the infliximab group, a dose of 60 μg antibody/mouse was administrated via tail vein injection on days 0, 7 and 14. For the FA gavage+infliximab group, each mouse was administered with 3 mg free folic acid by gavage per day for two weeks, and infliximab was administered via tail vein injection at a dose of 60 μg antibody/mouse on days 0, 7 and 14. For the physiological saline group, the mice were injected with physiological saline via tail vein on days 0, 7 and 14. One week after the last administration (day 21), the serum was collected from the mice, and was measured by ELISA for the antibodies against infliximab.

[3] = system: antibodies against trastuzumab; experiment: Serum antibodies against trastuzumab by ELISA; assay type: in vivo, BALB/c female mice; settings: FA gavage+trastuzumab group: 3 mg free folic acid per day for two weeks, trastuzumab 60 μg/mouse iv days 0, 7, 14; serum day 21
Description: For the FA gavage+trastuzumab group, each mouse was administered by gavage with 3 mg free folic acid per day for two weeks, and trastuzumab was administered via tail vein injection at a dose of 60 μg antibody/mouse on days 0, 7 and 14. For the physiological saline group, the mice were injected with physiological saline via tail vein on days 0, 7 and 14. One week after the last administration (day 21), the serum was collected from the mice, and was measured by ELISA for the antibodies against trastuzumab.

antibodies against sLip = experiment: Serum antibodies against liposomes (sLip) by ELISA; assay type: in vivo, BALB/c female mice; settings: mixed solution of liposome 5 mg/kg and 10 μg or 50 μg FA, single dose tail vein; serum 5 days after
Description: Liposomes (sLip) were prepared firstly. HSPC. Chol and mPEG2000-DSPE (all purchased from AVT (Shanghai) Pharmaceutical Tech Co., Ltd.) were weighted in a molar ratio of 52:43:5. The film materials were dissolved in 5 mL chloroform, and the mixture was subjected to rotary evaporation under reduced pressure to remove chloroform, to obtain a uniform lipid film. Residual organic solvent was removed by vacuum drying overnight. Shaking in a water bath at 60° C. was performed until the liposome membrane is completely hydrated to obtain white liposome suspension. The liposome suspension went through 200 and 100 nuclear pore membrane by a micro-extruder sequentially, to obtain a liquid with pale blue opalescence, i.e., a liposome (sLip) solution.
The BALB/c female mice (6 weeks old) were randomly divided into sLip group, sLip+FA (10 μg) group, sLip+FA (50 μg) group and physiological saline group, with 4 mice in each group. For the sLip group, the liposome solution (5 mg liposome/kg mouse body weight) was administered in a single dose via tail vein. For sLip+FA([…]) group, a mixed solution of liposome (5 mg liposome/kg mouse body weight) and 10 μg FA was administered in a single dose via tail vein. […] Serum was collected from all mice 5 days after administration, and was measured by ELISA for the concentrations of the antibodies against sLip.

[4] = system: experimental autoimmune encephalomyelitis (EAE) model; experiment: Experimental autoimmune encephalomyelitis (EAE) model; assay type: in vivo, female C57/BL6 mice; settings: 10 μg/mouse iv once a week x3 before PLP emulsion induction
Description: The efficacy of folate modification in autoimmune encephalomyelitis was investigated using an experimental autoimmune encephalomyelitis (EAE) model. The model was established as follows: the animals were injected with whole protein or protein fragment (e.g., PLP polypeptide) that induces nerve cell myelin sheath and peripheral protein, causing inflammation and demyelination symptoms and inducing the autoimmune response of the animal: thereby the injected self-proteins are regarded as foreign objects and cause the immune system to attack the self myelin sheath.
The female C57/BL6 mice were intravenously injected with PLP polypeptide (amino acid sequence. […]) or folate-PLP complex (FA-PLP) at a dose of 10 μg/mouse, once a week for three times in total. One week later, the emulsion of PLP polypeptide in Freund's complete adjuvant was prepared, the concentration of PLP being 1 μg/μL. Four points were set up on both sides of the back of the mouse, and 0.05 mL PLP emulsion was injected subcutaneously at each point to induce inflammation, 2 and 24 hours after PLP injection, 150 ng pertussis toxin was injected intraperitoneally. The incidence in the mice was observed every day, and the mice were scored according to the 5-point scoring standard (Kono method). The incidence scoring curve was plotted.

[5] = system: Anti-Drug Antibodies (ADAs); settings: phase I single-dose study, healthy subjects; cited from earlier work

water solubility [1]: insoluble in water
Compound: Nc1nc2ncc(CNc3ccc(C(=O)N[C@@H](CCC(=O)O)C(=O)O)cc3)nc2c(=O)[nH]1 [folic acid]
level of OVA-specific IgG in the serum (OVA-specific IgG; day 28, FA(ig)+OVA group, after FA discontinued): comparable to that in the OVA group | level of OVA-specific IgG in the serum (OVA-specific IgG; days 14 and 21, FA(ig)+OVA group: 3 mg free folic acid by gavage daily for two weeks, OVA 10 μg/mouse iv day 0 and 7): significantly lower than that in the OVA group | levels of KLH-specific antibodies in serum (KLH-specific antibodies): similar | level of antibodies against infliximab [2]: significantly lower than that in the infliximab group | level of antibodies against trastuzumab [3]: significantly lower than that in the trastuzumab group | production of the antibodies against liposomes (sLip) (antibodies against sLip): effectively reduce the production of the antibodies against liposomes, and the effect increases as the concentration of folic acid increases

Compound: FA-PLP: folate-modified PLP polypeptide HSLGKWLGHPDKF (also: folate conjugate, site not given here)
immune tolerance to PLP / inflammatory response (incidence score, Kono method) [4]: causes the body's immune tolerance to PLP and contributes to reducing the inflammatory response

Compound: adalimumab
incidence of ADAs [5]: 70-100%
